This test addresses TRPM4 (Homo sapiens, UniProt Q8TD43). Description: whole-cell patch clamp of endogenous TRPM4 currents in HCT116 cells. The class given is cell-based.

Sequence of TRPM4 (Q8TD43 whole entry): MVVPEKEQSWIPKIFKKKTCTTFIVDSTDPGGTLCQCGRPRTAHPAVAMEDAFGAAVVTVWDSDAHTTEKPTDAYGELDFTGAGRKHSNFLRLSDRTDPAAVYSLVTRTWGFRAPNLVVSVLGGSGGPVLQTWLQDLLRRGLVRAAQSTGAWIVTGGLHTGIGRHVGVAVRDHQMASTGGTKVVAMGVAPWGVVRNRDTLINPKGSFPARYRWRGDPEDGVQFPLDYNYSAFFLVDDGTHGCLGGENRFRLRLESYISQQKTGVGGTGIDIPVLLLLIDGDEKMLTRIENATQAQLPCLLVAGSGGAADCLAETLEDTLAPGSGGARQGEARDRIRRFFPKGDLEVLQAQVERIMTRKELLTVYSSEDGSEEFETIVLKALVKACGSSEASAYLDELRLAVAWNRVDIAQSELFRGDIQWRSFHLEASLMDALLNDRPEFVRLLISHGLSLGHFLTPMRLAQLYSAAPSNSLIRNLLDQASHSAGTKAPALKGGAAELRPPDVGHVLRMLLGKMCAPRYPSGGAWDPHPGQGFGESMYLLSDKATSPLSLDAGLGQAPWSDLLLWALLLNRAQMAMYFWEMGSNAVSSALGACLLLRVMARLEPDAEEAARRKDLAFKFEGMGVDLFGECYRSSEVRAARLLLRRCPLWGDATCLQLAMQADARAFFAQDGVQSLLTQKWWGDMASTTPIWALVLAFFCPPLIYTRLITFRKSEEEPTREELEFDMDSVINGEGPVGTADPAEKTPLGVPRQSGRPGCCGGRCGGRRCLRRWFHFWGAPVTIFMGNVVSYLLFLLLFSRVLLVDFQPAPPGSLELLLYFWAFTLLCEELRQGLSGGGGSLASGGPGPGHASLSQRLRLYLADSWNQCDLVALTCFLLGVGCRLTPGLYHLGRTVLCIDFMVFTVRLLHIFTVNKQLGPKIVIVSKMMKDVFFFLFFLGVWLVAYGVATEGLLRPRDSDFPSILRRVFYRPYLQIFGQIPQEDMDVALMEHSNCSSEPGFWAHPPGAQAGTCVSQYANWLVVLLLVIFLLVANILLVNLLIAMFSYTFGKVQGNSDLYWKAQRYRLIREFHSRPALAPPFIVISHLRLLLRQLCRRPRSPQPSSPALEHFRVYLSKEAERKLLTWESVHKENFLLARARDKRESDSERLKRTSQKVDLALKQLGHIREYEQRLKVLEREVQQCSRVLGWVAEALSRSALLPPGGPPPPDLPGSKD

In general, IC50 refers to the concentration needed to halve the response being measured. Low readings indicate greater potency, high ones weaker potency. The compound `Cc1cc(Cl)ccc1OC(C)C(=O)Nc1cc(Cl)ccc1C(=O)O` (stereo not shown) [LBA, 4-chloro-2-(2-(4-chloro-2-methylphenoxy)propanamido) benzoic acid] gave an IC50 of 1840 nM.

The values above are taken from article PMC8582472, “Investigation of Novel Small Molecular TRPM4 Inhibitors in Colorectal Cancer Cells” (Cancers, 2021).
